± gives the expanded uncertainty stated by the source.
Experiments:
[1] = refractive index (other wavelength) (dimensionless); xn = mol fraction of the nth substance listed; details: 295.84 K, 101.3 kPa, Liquid, Wavelength=632.8 nm, Standard Abbe refractometry
[2] = refractive index (other wavelength) (dimensionless); details: 101 kPa, Liquid, Wavelength=632.8 nm, Standard Abbe refractometry

Q: Which refractive index ([1]; x2 = 0) does the source give for `CCCCCCCCCCCCC` [tridecane] + N#Cc1ccccc1 here?
A: 1.4231 ± 0.0004

Q: What does the source list for `N#Cc1ccccc1` [benzonitrile]?
A: refractive index ([2]; 293.37 K): 1.5252 ± 0.0004; refractive index ([2]; 293.99 K): 1.5249 ± 0.0004; refractive index ([2]; 294.53 K): 1.5247 ± 0.0004; refractive index ([2]; 295.09 K): 1.5243 ± 0.0004; refractive index ([2]; 295.66 K): 1.5241 ± 0.0004; refractive index ([2]; 295.84 K): 1.5239 ± 0.0004; refractive index ([2]; 296.11 K): 1.5238 ± 0.0004; refractive index ([2]; 296.8 K): 1.5236 ± 0.0004; refractive index ([2]; 297.15 K): 1.5233 ± 0.0004; refractive index ([2]; 297.91 K): 1.523 ± 0.0004; refractive index ([2]; 298.2 K): 1.5228 ± 0.0004; refractive index ([2]; 298.8 K): 1.5225 ± 0.0004; refractive index ([2]; 298.83 K): 1.5226 ± 0.0004; refractive index ([2]; 299.26 K): 1.5223 ± 0.0004; refractive index ([2]; 300.06 K): 1.5219 ± 0.0004; refractive index ([2]; 300.12 K): 1.5219 ± 0.0004; refractive index ([2]; 300.31 K): 1.5218 ± 0.0004; refractive index ([2]; 301.13 K): 1.5214 ± 0.0004; refractive index ([2]; 301.23 K): 1.5214 ± 0.0004; refractive index ([2]; 301.35 K): 1.5213 ± 0.0004; refractive index ([2]; 302.26 K): 1.5209 ± 0.0004; refractive index ([2]; 302.31 K): 1.5209 ± 0.0004; refractive index ([2]; 302.42 K): 1.5208 ± 0.0004; refractive index ([2]; 303.41 K): 1.5203 ± 0.0004; refractive index ([2]; 304.49 K): 1.5198 ± 0.0004; refractive index ([2]; 305.64 K): 1.5192 ± 0.0004; refractive index ([2]; 306.89 K): 1.5186 ± 0.0004; refractive index ([2]; 307.88 K): 1.5181 ± 0.0004

Q: Which refractive index ([1]; x1 = 0.1148) does the source give for `N#Cc1ccccc1` [benzonitrile] + CCCCCCCCCCCCC here?
A: 1.428 ± 0.0004

Q: What about the refractive index ([1]; x1 = 0.2007) of the same compound?
A: 1.4323 ± 0.0004

Q: And the refractive index ([1]; x1 = 0.3192)?
A: 1.439 ± 0.0004

Q: What about the refractive index ([1]; x1 = 0.3935) of the same compound?
A: 1.4443 ± 0.0004

Q: And the refractive index ([1]; x1 = 0.5)?
A: 1.4525 ± 0.0004

Q: What about the refractive index ([1]; x1 = 0.6113) of the same compound?
A: 1.4629 ± 0.0004

Q: And the refractive index ([1]; x1 = 0.7078)?
A: 1.4738 ± 0.0004

Q: And the refractive index ([1]; x1 = 0.8007)?
A: 1.4865 ± 0.0004

Q: What about the refractive index ([1]; x1 = 0.9009) of the same compound?
A: 1.5032 ± 0.0004

Q: What about the refractive index ([1]; x1 = 1) of the same compound?
A: 1.5239 ± 0.0004

Q: Which results are given for `CCCCCCCCCCCCC` [tridecane]?
A: refractive index ([2]; 293.2 K): 1.4244 ± 0.0004; refractive index ([2]; 294.26 K): 1.4239 ± 0.0004; refractive index ([2]; 295.29 K): 1.4234 ± 0.0004; refractive index ([2]; 295.84 K): 1.4231 ± 0.0004; refractive index ([2]; 296.33 K): 1.423 ± 0.0004; refractive index ([2]; 297.35 K): 1.4225 ± 0.0004; refractive index ([2]; 298.37 K): 1.4221 ± 0.0004; refractive index ([2]; 299.42 K): 1.4216 ± 0.0004; refractive index ([2]; 300.39 K): 1.4212 ± 0.0004; refractive index ([2]; 301.47 K): 1.4207 ± 0.0004

From the NIST ThermoML archive (doi:10.1021/je300630u)
